The results in this text go back to US11807650B2, “NMDA receptor modulators and uses thereof” (Novartis AG, priority 2016, dated 2023).

For this assay, the target named is T1, human GRIN1 (transcript variant NR1-3) and GRIN2D expressed in Xenopus oocytes (Homo sapiens, UniProt O15399).
T1 construct: GenScript (GRIN2D synthesis) SC115601; host or cells: Xenopus oocytes injected with cRNA (1 GluN1 : 2 GluN2)
T1 sequence (O15399 28-1336, other chains not shown): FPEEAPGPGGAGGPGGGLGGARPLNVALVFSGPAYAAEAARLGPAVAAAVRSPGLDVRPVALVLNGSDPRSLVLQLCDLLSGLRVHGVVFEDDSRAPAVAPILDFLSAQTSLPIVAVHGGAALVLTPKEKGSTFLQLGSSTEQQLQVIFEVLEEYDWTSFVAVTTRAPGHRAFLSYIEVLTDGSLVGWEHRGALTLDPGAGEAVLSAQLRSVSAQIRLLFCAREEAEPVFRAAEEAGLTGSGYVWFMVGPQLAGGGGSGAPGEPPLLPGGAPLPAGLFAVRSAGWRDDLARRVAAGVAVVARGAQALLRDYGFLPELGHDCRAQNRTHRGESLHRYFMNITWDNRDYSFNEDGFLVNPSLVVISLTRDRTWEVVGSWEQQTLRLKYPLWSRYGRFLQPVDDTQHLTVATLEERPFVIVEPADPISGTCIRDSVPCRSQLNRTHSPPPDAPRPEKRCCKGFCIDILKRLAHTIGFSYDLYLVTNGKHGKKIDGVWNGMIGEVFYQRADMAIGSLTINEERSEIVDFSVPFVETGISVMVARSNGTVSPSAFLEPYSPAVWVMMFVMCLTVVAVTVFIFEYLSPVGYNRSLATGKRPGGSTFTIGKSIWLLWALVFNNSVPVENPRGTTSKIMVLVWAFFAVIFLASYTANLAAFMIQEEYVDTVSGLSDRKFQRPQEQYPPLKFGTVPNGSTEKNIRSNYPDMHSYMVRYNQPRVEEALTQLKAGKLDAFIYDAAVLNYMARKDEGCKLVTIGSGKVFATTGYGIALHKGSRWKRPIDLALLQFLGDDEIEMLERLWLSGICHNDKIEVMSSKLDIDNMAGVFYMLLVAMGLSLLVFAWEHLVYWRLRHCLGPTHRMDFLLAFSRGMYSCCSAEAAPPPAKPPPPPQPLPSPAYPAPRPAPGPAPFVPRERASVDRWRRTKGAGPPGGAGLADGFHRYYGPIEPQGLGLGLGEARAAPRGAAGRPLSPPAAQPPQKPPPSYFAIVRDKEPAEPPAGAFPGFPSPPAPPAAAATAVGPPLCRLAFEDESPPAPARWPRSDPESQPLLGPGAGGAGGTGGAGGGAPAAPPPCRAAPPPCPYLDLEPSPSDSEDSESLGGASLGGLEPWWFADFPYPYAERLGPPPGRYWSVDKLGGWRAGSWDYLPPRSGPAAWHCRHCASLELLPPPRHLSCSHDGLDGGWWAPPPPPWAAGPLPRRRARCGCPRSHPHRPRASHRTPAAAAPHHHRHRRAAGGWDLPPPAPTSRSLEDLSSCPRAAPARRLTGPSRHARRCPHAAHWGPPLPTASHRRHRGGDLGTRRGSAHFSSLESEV
Nature of the assay: NR2D oocyte potentiation assay (two-electrode voltage clamp). It is filed as cell-based. As to conditions: 10 uM test compound; glutamate and glycine 10 μM each; holding potential −40 mV. As for the experimental part:
NR2D Oocyte Potentiation Assay. Xenopus oocytes (Xenopus 1, Dexter, Mich.) were initially separated from the lobes of an ovary using surgical forceps; they were then defolliculated by constant agitation at room temperature in OR-2 buffer (82.5 mM NaCl; 2.5 mM KCl; 1 mM MgCl2; 5 mM HEPES; pH 7.4) containing 2 mg/ml collagenase Type 1 (Fisher Scientific, USA) for 1.5-2 hours. The cells were then gently aspirated with a Pasteur pipette to remove the follicular tissue; this was followed by washing three times with OR-2 to remove all traces of collagenase. The oocytes were then washed in ND-96 (96 mM NaCl, 2 mM KCl, 1.8 mM CaCl2, 1 mM MgCl2, 5 mM HEPES, 50 ng/L gentamycin, 100 units/ml penicillin and 100 μg/ml streptomycin; pH 7.6) three times and this was followed by incubation in ND-96 at room temperature with mild agitation for 15 minutes; subsequently they were stored for at least 2 hours at 16° C. before sorting and selection for injection. Oocytes selected for injection were incubated overnight in ND-96 at 16° C.
The human GRIN1 (transcript variant NR1-3 (Origene, SKU #: SC115601, Rockville, Md.) and GRIN2D (NCBI locus NM_000836, sequence optimized and synthesized by GenScript) were linearized and transcribed using the mMessage mMachine kit (Life Technologies) and promoters SP6 (for GluN1) and T7 (for GluN2D). cRNAs were mixed together at a ratio of 1 GluN1:2 GluN2. Each oocyte was injected with 50 nL of cRNA and stored in ND96 (96 mM NaCl, 2 mM KCl, 1.8 mM CaCl2, 1 mM MgCl2, 5 mM HEPES, 50 ng/L gentamycin, 100 units/ml penicillin and 100 μg/ml streptomycin; pH 7.6) at 16° C. for 72 h prior to recording.
Currents were recorded using a two-electrode voltage-clamp amplifier (Oocyte Clamp OC-725C; Warner Instrument Corp, Hamden, Conn.), and digitized using Digidata 1550A and pClamp (v. 10) software (Molecular Devices, Sunnyvale, Calif.). Electrodes were filled with 3 M KCl and had resistances that ranged from 0.2-1 MO. All measurements were made at a holding potential of −40 mV. Cells were continuously perfused with oocyte recording solution containing 90 mM NaCl, 1 mM KCl, 0.5 mM BaCl2, and 10 mM HEPES (Ph 7.4). Glutamate and Glycine (co-agonists) were applied at respective concentrations of 10 μM each. Co-agonists were applied until a plateau was reached, and test compounds were then added in the continued presence of co-agonists until a new plateau was reached. After the addition of the last test compound concentration, the oocyte was washed with oocyte recording buffer. Fraction of current remaining was calculated as [(current in presence of test compound−background current)/(co-agonist current−background current)] and IC50 values were computed using Prism 6.0 (Graphpad).
A general note: Two-electrode voltage clamp holds a large cell at a set potential and records current.
In the case of `CC(C)(C)c1ccc(-c2nc3n(c(=O)c2C#N)CCS3)cn1` [Example 1, 7-(6-(tert-butyl)pyridin-3-yl)-5-oxo-2,3-dihydro-5H-thiazolo[3,2-a]pyrimidine-6-carbonitrile], the activation at 10 µM fell in the range of 100 to 500%. `CC(C)(C)c1ccc(-c2nc3n(c(=O)c2C#N)CC=CCS3)cn1` [Example 2, 2-(6-(tert-butyl)pyridin-3-yl)-4-oxo-6,9-dihydro-4H-pyrimido[2,1-b][1,3]thiazepine-3-carbonitrile]: the activation at 10 µM lay within 10 to 100%. `CC(C)(C)c1ccc(-c2nc3sccn3c(=O)c2C#N)cn1` [Example 3, 7-(6-(tert-butyl)pyridin-3-yl)-5-oxo-5H-thiazolo[3,2-a]pyrimidine-6-carbonitrile]: the activation at 10 µM was 100 to 500%. Regarding `CC(C)(C)c1ncc(-c2nc3n(c(=O)c2C#N)CCS3)cn1` [Example 4, 7-(2-(tert-butyl)pyrimidin-5-yl)-5-oxo-2,3-dihydro-5H-thiazolo[3,2-a]pyrimidine-6-carbonitrile], the activation at 10 µM is 100 to 500%. In the case of `CC(C)(C)c1ccc(-c2nc3n(c(=O)c2C#N)CN(c2ccccc2)CS3)cc1` [Example 5, 8-(4-(tert-butyl)phenyl)-6-oxo-3-phenyl-3,4-dihydro-2H,6H-pyrimido[2,1-b][1,3,5]thiadiazine-7-carbonitrile], the activation at 10 µM was in the range of 10 to 100%. For the molecule `CN1CSc2nc(-c3ccc(C(C)(C)C)cc3)c(C#N)c(=O)n2C1` [Example 6, 8-(4-(tert-butyl)phenyl)-3-methyl-6-oxo-3,4-dihydro-2H,6H-pyrimido[2,1-b][1,3,5]thiadiazine-7-carbonitrile], the activation at 10 µM was in the range of 10 to 100%. Then `CCN1CSc2nc(-c3ccc(C(C)(C)C)cc3)c(C#N)c(=O)n2C1` [Example 7, 8-(4-(tert-butyl)phenyl)-3-ethyl-6-oxo-3,4-dihydro-2H,6H-pyrimido[2,1-b][1,3,5]thiadiazine-7-carbonitrile], with 10 to 100%. Turning to `CN1CSc2nc(-c3ccc(C(C)(C)C)nc3)c(C#N)c(=O)n2C1` [Example 8, 8-(6-(tert-butyl)pyridin-3-yl)-3-methyl-6-oxo-3,4-dihydro-2H,6H-pyrimido[2,1-b][1,3,5]thiadiazine-7-carbonitrile], the activation at 10 µM is 10 to 100%. Then `CCN1CSc2nc(-c3ccc(C(C)(C)C)nc3)c(C#N)c(=O)n2C1` [Example 9, 8-(6-(tert-butyl)pyridin-3-yl)-3-ethyl-6-oxo-3,4-dihydro-2H,6H-pyrimido[2,1-b][1,3,5]thiadiazine-7-carbonitrile], with 10 to 100%.

In the case of `CN1CSc2nc(-c3cnc(C(C)(C)C)nc3)c(C#N)c(=O)n2C1` [Example 10, 8-(2-(tert-butyl)pyrimidin-5-yl)-3-methyl-6-oxo-3,4-dihydro-2H,6H-pyrimido[2,1-b][1,3,5]thiadiazine-7-carbonitrile], the activation at 10 µM was in the range of 10 to 100%.

With `CCN1CSc2nc(-c3cnc(C(C)(C)C)nc3)c(C#N)c(=O)n2C1` [Example 11, 8-(2-(tert-butyl)pyrimidin-5-yl)-3-ethyl-6-oxo-3,4-dihydro-2H,6H-pyrimido[2,1-b][1,3,5]thiadiazine-7-carbonitrile], the activation at 10 µM lay in the range of 10 to 100%. In the case of `CC(C)(C)c1ccc(-c2cc(=O)n3ccccc3n2)cc1` [Example 12, 2-(4-(tert-butyl)phenyl)-4H-pyrido[1,2-a]pyrimidin-4-one], the activation at 10 µM was in the range of 10 to 100%. Consider `CC(C)(C)c1ccc(-c2nc3n(c(=O)c2Br)CCCC3)cc1` [Example 13, 3-bromo-2-(4-(tert-butyl)phenyl)-6,7,8,9-tetrahydro-4H-pyrido[1,2-a]pyrimidin-4-one], for which the activation at 10 µM is below 10%.

On to `C=Cc1c(-c2ccc(C(C)(C)C)cc2)nc2n(c1=O)CCCC2` [Example 14, 2-(4-(tert-butyl)phenyl)-3-vinyl-6,7,8,9-tetrahydro-4H-pyrido[1,2-a]pyrimidin-4-one], for which the activation at 10 µM is below 10%. For `CC(C)(C)c1ccc(-c2nc3n(c(=O)c2Br)CCCC3)cn1` [Example 15, 3-bromo-2-(6-tert-butylpyridin-3-yl)-4H,6H, 7H,8H,9H-pyrido[1,2-a] pyrimidin-4-one] the value was 10 to 100%; for `CC(C)(C)c1ccc(-c2nc3n(c(=O)c2C#N)CC(F)CS3)cn1` (stereo not drawn) [Example 16, 8-(6-(tert-butyl)pyridin-3-yl)-3-fluoro-6-oxo-3,4-dihydro-2H,6H-pyrimido[2,1-b][1,3]thiazine-7-carbonitrile], 10 to 100%; for `CC(C)(C)c1ncc(-c2nc3n(c(=O)c2C#N)CC(F)CS3)cn1` (stereo not drawn) [Example 17, 8-(2-tert-butylpyrimidin-5-yl)-3-fluoro-6-oxo-2H,3H, 4H,6H-pyrimido [2,1-b][1,3] thiazine-7-carbonitrile], 100 to 500%. Turning to `CC(C)(C)c1ccc(-c2nc3ccccn3c(=O)c2C#N)cc1` [Example 18, 2-(4-(tert-butyl)phenyl)-4-oxo-4H-pyrido[1,2-a]pyrimidine-3-carbonitrile], the activation at 10 µM was in the range of 100 to 500%. As for `CC(C)(C)c1ccc(-c2nc3ccccn3c(=O)c2C#N)cn1` [Example 19, 2-(6-(tert-butyl)pyridin-3-yl)-4-oxo-4H-pyrido[1,2-a]pyrimidine-3-carbonitrile], the activation at 10 µM lay in the range of 100 to 500%. For the molecule `Cc1ccc2nc(-c3ccc(C(C)(C)C)nc3)c(C#N)c(=O)n2c1` [Example 21, 2-(6-(tert-butyl)pyridin-3-yl)-7-methyl-4-oxo-4H-pyrido[1,2-a]pyrimidine-3-carbonitrile], the activation at 10 µM lay in the range of 100 to 500%. For `Cc1ccc2nc(-c3cnc(C(C)(C)C)nc3)c(C#N)c(=O)n2c1` [Example 22, 2-(2-(tert-butyl)pyrimidin-5-yl)-7-methyl-4-oxo-4H-pyrido[1,2-a]pyrimidine-3-carbonitrile], the activation at 10 µM fell in the range of 100 to 500%. For `CC(C)(C)c1ccc(-c2nc3n(c(=O)c2C#N)CCCC3)cc1` [Example 23, 2-(4-(tert-butyl)phenyl)-4-oxo-6,7,8,9-tetrahydro-4H-pyrido[1,2-a]pyrimidine-3-carbonitrile], the activation at 10 µM was in the range of 10 to 100%. Turning to `CC(C)(C)c1ccc(-c2nc3n(c(=O)c2C#N)CC(F)(F)CS3)cn1` [Example 24, 8-(6-(tert-butyl)pyridin-3-yl)-3,3-difluoro-6-oxo-3,4-dihydro-2H,6H-pyrimido[2,1-b][1,3]thiazine-7-carbonitrile], the activation at 10 µM was in the range of 100 to 500%. `CSc1c(-c2ccc(C(C)(C)C)cc2)nc2n(c1=O)CCCC2` [Example 25, 2-(4-(tert-butyl)phenyl)-3-(methylthio)-6,7,8,9-tetrahydro-4H-pyrido[1,2-a]pyrimidin-4-one]: the activation at 10 µM was below 10%. With `C[S+]([O-])c1c(-c2ccc(C(C)(C)C)cc2)nc2n(c1=O)CCCC2` (stereo not drawn) [Example 26, 2-(4-(tert-butyl)phenyl)-3-(methylsulfinyl)-6,7,8,9-tetrahydro-4H-pyrido[1,2-a]pyrimidin-4-one], the activation at 10 µM is below 10%. With `CSc1c(-c2ccc(C(C)(C)C)nc2)nc2n(c1=O)CCCC2` [Example 27, 2-(6-tert-butylpyridin-3-yl)-3-(methylsulfanyl)-4H,6H,7H, 8H,9H-pyrido[1,2-a] pyrimidin-4-one], the activation at 10 µM is below 10%. Take `CC(C)(C)c1ccc(-c2nc3n(c(=O)c2Br)CCCS3)cc1` [Example 28, 7-bromo-8-(4-(tert-butyl)phenyl)-3,4-dihydro-2H,6H-pyrimido[2,1-b][1,3]thiazin-6-one]: the activation at 10 µM fell in the range of 100 to 500%.

On to `Cc1c(-c2ccc(C(C)(C)C)cc2)nc2n(c1=O)CCCS2` [Example 29, 8-(4-(tert-butyl)phenyl)-7-methyl-3,4-dihydro-2H,6H-pyrimido[2,1-b][1,3]thiazin-6-one], for which the activation at 10 µM was 10 to 100%. `CC(C)(C)c1ccc(-c2nc3n(c(=O)c2Br)CCCS3)cn1` [Example 30, 7-bromo-8-(6-(tert-butyl)pyridin-3-yl)-3,4-dihydro-2H,6H-pyrimido[2,1-b][1,3]thiazin-6-one]: the activation at 10 µM was in the range of 100 to 500%. For `Cc1c(-c2ccc(C(C)(C)C)nc2)nc2n(c1=O)CCCS2` [Example 31, 8-(6-(tert-butyl)pyridin-3-yl)-7-methyl-3,4-dihydro-2H,6H-pyrimido[2,1-b][1,3]thiazin-6-one], the activation at 10 µM fell in the range of 10 to 100%.
